system: Ba/F3 LMNA-NTRK1-G595R cells; assay: Assay for inhibiting the proliferation of Ba/F3 LMNA-NTRK1-G595R cells (CCK-8); format: cell-based; conditions: Mus musculus, BaF3
Procedure: In particular, the method of the assay of small molecular compounds for inhibiting cell proliferation is as follows: • 1. Cells cultured to a logarithmic growth phase (adherent cells need to be digested with trypsin and neutralized) were taken, pipetted evenly, transferred to a 15 mL centrifuge tube, and centrifuged at 1000 rpm at room temperature for 4 minutes; • 2. The supernatant was discarded; 5 mL of complete medium was added and pipetted evenly; 10 μL of cell suspension was taken out, mixed well with 10 μL of 0.4% trypan blue, and counted under a cell counter; the proportion of living cells was ensured to be above 90%; • 3. 80 μL of cell suspension per well was seeded into a 96-well plate according to the conditions shown in the attached table, and cultured overnight; in the outer 36 wells of the 96-well plate, no cells were added but only sterile water was added; only the inner 60 wells were used for cell assay and control; • 4. 5×compound dilution: the compounds were serially diluted 3-fold to obtain a total of 9 concentrations; 80-fold overall dilution was completed with complete medium, the resulting concentration was 5 times the final drug concentration, and DMSO concentration was 1.25%; • 5. 20 μL of the corresponding compounds with different concentration gradients were added to each well of assay wells of the 96-well plate; 20 μL of complete medium was added to positive and negative control wells and shaken well; and the final concentration of DMSO in each well was 0.25%; • 6. After 72 hours of incubation, 10 μL of CCK-8 reagent was added to each well and further incubated at 37° C. for 1-2 hours; and the OD value was read at 450 nm; • 7. Cell survival rate (%)=[(As−Ab)/(Ac−Ab)]*100% • As: Assay well (medium containing cells, CCK-8, compound), • Ac: Control well (medium containing cells, CCK-8), • Ab: Blank well (CCK-8, medium without cell and compound), • 8. The values were imported into Graphpad Prism 5 software for IC50 calculation.

IC50 [nM]	SMILES
≤ 50	Cn1cc(C(=O)Nc2ccc(Oc3ccnc4cc(OCCCN5CCCCC5)c5c(c34)OCCO5)cc2Cl)c(=O)n(-c2ccc(F)cc2)c1=O [Example 137, N-(2-chloro-4-((5-((3-piperidin-1-yl)propoxy)-2,3-dihydro-[1,4]dioxino[2,3-f]quinolin-10-yl)oxy)phenyl)-3-(4-fluorophenyl)-1-methyl-2,4-dioxo-1,2,3,4-tetrahydropyrimidine-5-carboxamide]
≤ 50	COc1cc2nccc(Oc3cc(Cl)c(NC(=O)c4cn(C)c(=O)n(-c5ccc(F)cc5)c4=O)cc3F)c2c2c1OCCO2 [Example 116, N-(2-chloro-5-fluoro-4-((5-methoxy-2,3-dihydro-[1,4]dioxino[2,3-f]quinolin-10-yl)oxy)phenyl)-3-(4-fluorophenyl)-1-methyl-2,4-dioxo-1,2,3,4-tetrahydropyrimidine-5-carboxamide]
50 to 200	Cn1cc(C(=O)Nc2ccc(Oc3ccnc4ccc5c(c34)OCCO5)cc2F)c(=O)n(-c2ccc(F)cc2)c1=O [Example 162, N-(4-((2,3-dihydro-[1,4]dioxino[2,3-f]quinolin-10-yl)oxy)-2-fluorophenyl)-3-(4-fluorophenyl)-1-methyl-2,4-dioxo-1,2,3,4-tetrahydropyrimidine-5-carboxamide]
> 1000	COc1cc2nccc(Oc3ccc(NC(=O)c4cn(C)c(=O)n(-c5ccc(F)cc5)c4=O)cc3)c2c2c1OCCO2 [Example 145, N-(4-((5-methoxy-2,3-dihydro-[1,4]dioxino[2,3-f]quinolin-10-yl)oxy)phenyl)-3-(4-fluorophenyl)-1-methyl-2,4-dioxo-1,2,3,4-tetrahydropyrimidine-5-carboxamide]
50 to 200	COCCOc1cc2nccc(Oc3ccc(NC(=O)c4cn(C)c(=O)n(-c5ccc(F)cc5)c4=O)cc3)c2c2c1OCCO2 [Example 147, N-(4-((5-(2-methoxyethoxy)-2,3-dihydro-[1,4]dioxino[2,3-f]quinolin-10-yl)oxy)phenyl)-3-(4-fluorophenyl)-1-methyl-2,4-dioxo-1,2,3,4-tetrahydropyrimidine-5-carboxamide]
200 to 1000	CCn1cc(C(=O)Nc2ccc(Oc3ccnc4cc(OCCCN5CCOCC5)c5c(c34)OCCO5)c(F)c2)c(=O)n(-c2ccc(F)cc2)c1=O [Example 38, N-(3-fluoro-4-((5-(3-morpholinopropoxy)-2,3-dihydro-[1,4]dioxino[2,3-f]quinolin-10-yl)oxy)phenyl)-3-(4-fluorophenyl)-1-ethyl-2,4-dioxo-1,2,3,4-tetrahydropyrimidine-5-carboxamide]
50 to 200	Cn1cc(C(=O)Nc2ccc(Oc3ccnc4cc(OCCCN5CCCCC5)c5c(c34)OCCO5)c(F)c2)c(=O)n(-c2ccc(F)cc2)c1=O [Example 39, N-(3-fluoro-4-((5-(3-(piperidin-1-yl)propoxy)-2,3-dihydro-[1,4]dioxino[2,3-f]quinolin-10-yl)oxy)phenyl)-3-(4-fluorophenyl)-1-methyl-2,4-dioxo-1,2,3,4-tetrahydropyrimidine-5-carboxamide]
50 to 200	Cn1cc(C(=O)Nc2ccc(Oc3ccnc4cc(OCC(C)(C)O)c5c(c34)OCCO5)cc2Cl)c(=O)n(-c2ccc(F)cc2)c1=O [Example 141, N-(2-chloro-4-((5-(2-hydroxy-2-methylpropoxy)-2,3-dihydro-[1,4]dioxino[2,3-f]quinolin-10-yl)oxy)phenyl)-3-(4-fluorophenyl)-1-methyl-2,4-dioxo-1,2,3,4-tetrahydropyrimidine-5-carboxamide]
≤ 50	COCCOc1cc2nccc(Oc3ccc(NC(=O)c4cn(C)c(=O)n(-c5ccc(F)cc5)c4=O)c(F)c3)c2c2c1OCCO2 [Example 155, N-(2-fluoro-4-((5-(2-methoxyethoxy)-2,3-dihydro-[1,4]dioxino[2,3-f]quinolin-10-yl)oxy)phenyl)-3-(4-fluorophenyl)-1-methyl-2,4-dioxo-1,2,3,4-tetrahydropyrimidine-5-carboxamide]
> 1000	Cn1cc(C(=O)Nc2ccc(Oc3ccnc4cc(OCC(C)(C)O)c5c(c34)OCCO5)cc2)c(=O)n(-c2ccc(F)cc2)c1=O [Example 149, N-(4-((5-(2-hydroxy-2-methylpropoxy)-2,3-dihydro-[1,4]dioxino[2,3-f]quinolin-10-yl)oxy)phenyl)-3-(4-fluorophenyl)-1-methyl-2,4-dioxo-1,2,3,4-tetrahydropyrimidine-5-carboxamide]
50 to 200	CCn1cc(C(=O)Nc2ccc(Oc3ccnc4cc(OCCOC)c5c(c34)OCCO5)cc2F)c(=O)n(-c2ccc(F)cc2)c1=O [Example 156, N-(2-fluoro-4-((5-(2-methoxyethoxy)-2,3-dihydro-[1,4]dioxino[2,3-f]quinolin-10-yl)oxy)phenyl)-3-(4-fluorophenyl)-1-ethyl-2,4-dioxo-1,2,3,4-tetrahydropyrimidine-5-carboxamide]
≤ 50	CCOc1cc2nccc(Oc3ccc(NC(=O)c4cn(C)c(=O)n(-c5ccc(F)cc5)c4=O)c(Cl)c3)c2c2c1OCCO2 [Example 129, N-(2-chloro-4-((5-ethoxy-2,3-dihydro-[1,4]dioxino[2,3-f]quinolin-10-yl)oxy)phenyl)-3-(4-fluorophenyl)-1-methyl-2,4-dioxo-1,2,3,4-tetrahydropyrimidine-5-carboxamide]
50 to 200	Cn1cc(C(=O)Nc2ccc(Oc3ccnc4cc(OCCCN5CCOCC5)c5c(c34)OCCO5)c(F)c2)c(=O)n(-c2ccc(F)cc2)c1=O [Example 15, N-(3-fluoro-4-((5-(3-morpholinopropoxy)-2,3-dihydro-[1,4]dioxino[2,3-f]quinolin-10-yl)oxy)phenyl)-3-(4-fluorophenyl)-1-methyl-2,4-dioxo-1,2,3,4-tetrahydropyrimidine-5-carboxamide]
200 to 1000	CC(C)n1cc(C(=O)Nc2ccc(Oc3ccnc4cc(OCCCN5CCOCC5)c5c(c34)OCCO5)c(F)c2)c(=O)n(-c2ccc(F)cc2)c1=O [Example 16, N-(3-fluoro-4-((5-(3-morpholinopropoxy)-2,3-dihydro-[1,4]dioxino[2,3-f]quinolin-10-yl)oxy)phenyl)-3-(4-fluorophenyl)-1-isopropyl-2,4-dioxo-1,2,3,4-tetrahydropyrimidine-5-carboxamide]
50 to 200	CC(C)n1cc(C(=O)Nc2ccc(Oc3ccnc4cc(OCCCN5CCOCC5)c5c(c34)OCCO5)c(Cl)c2)c(=O)n(-c2ccc(F)cc2)c1=O [Example 97, N-(3-chloro-4-((5-(3-morpholinopropoxy)-2,3-dihydro-[1,4]dioxino[2,3-f]quinolin-10-yl)oxy)phenyl)-3-(4-fluorophenyl)-1-isopropyl-2,4-dioxo-1,2,3,4-tetrahydropyrimidine-5-carboxamide]
50 to 200	Cn1cc(C(=O)Nc2ccc(Oc3ccnc4cc(OCCCN5CCOCC5)c5c(c34)OCCO5)cc2Cl)c(=O)n(-c2ccc(F)cc2)c1=O [Example 98, N-(2-chloro-4-((5-(3-morpholinopropoxy)-2,3-dihydro-[1,4]dioxino[2,3-f]quinolin-10-yl)oxy)phenyl)-3-(4-fluorophenyl)-1-methyl-2,4-dioxo-1,2,3,4-tetrahydropyrimidine-5-carboxamide]
> 1000	CCn1cc(C(=O)Nc2ccc(Oc3ccnc4cc(OCC(C)(C)O)c5c(c34)OCCO5)cc2)c(=O)n(-c2ccc(F)cc2)c1=O [Example 150, N-(4-((5-(2-hydroxy-2-methylpropoxy)-2,3-dihydro-[1,4]dioxino[2,3-f]quinolin-10-yl)oxy)phenyl)-3-(4-fluorophenyl)-1-ethyl-2,4-dioxo-1,2,3,4-tetrahydropyrimidine-5-carboxamide]
200 to 1000	COc1cc2ncnc(Oc3ccc(NC(=O)c4cn(C)c(=O)n(-c5ccc(F)cc5)c4=O)cc3F)c2c2c1OCCO2 [Example 29, N-(3-fluoro-4-((5-methoxy-2,3-dihydro-[1,4]dioxino[2,3-f]quinazolin-10-yl)oxy)phenyl)-3-(4-fluorophenyl)-1-methyl-2,4-dioxo-1,2,3,4-tetrahydropyrimidine-5-carboxamide]
200 to 1000	CC(C)n1cc(C(=O)Nc2ccc(Oc3ccnc4cc(OCCCN(C)C5CCC5)c5c(c34)OCCO5)c(F)c2)c(=O)n(-c2ccc(F)cc2)c1=O [Example 96, N-(3-fluoro-4-((5-(3-((cyclobutyl)(methyl)amino)propoxy)-2,3-dihydro-[1,4]dioxino[2,3-f]quinolin-10-yl)oxy)phenyl)-3-(4-fluorophenyl)-1-isopropyl-2,4-dioxo-1,2,3,4-tetrahydropyrimidine-5-carboxamide]
200 to 1000	CCn1cc(C(=O)Nc2ccc(Oc3ccnc4cc(OC)c5c(c34)OCCO5)cc2)c(=O)n(-c2ccc(F)cc2)c1=O [Example 146, N-(4-((5-methoxy-2,3-dihydro-[1,4]dioxino[2,3-f]quinolin-10-yl)oxy)phenyl)-3-(4-fluorophenyl)-1-ethyl-2,4-dioxo-1,2,3,4-tetrahydropyrimidine-5-carboxamide]

Reference: US12202835B2, “Substituted aromatic ring-linked dioxinoquinazolines and dioxinoquinolines as kinase inhibitors” (BEIJING SCITECH-MQ PHARMACEUTICALS LIMITED, priority 2018, dated 2025)
